{"source": "patent US20240174647A1", "about": "(NEURON23, INC., priority 2022, published 2024)", "target": "wt human LRRK2, catalytic site (Homo sapiens (Human), UniProt Q5S007)", "sequence (Q5S007 1879-2138)": "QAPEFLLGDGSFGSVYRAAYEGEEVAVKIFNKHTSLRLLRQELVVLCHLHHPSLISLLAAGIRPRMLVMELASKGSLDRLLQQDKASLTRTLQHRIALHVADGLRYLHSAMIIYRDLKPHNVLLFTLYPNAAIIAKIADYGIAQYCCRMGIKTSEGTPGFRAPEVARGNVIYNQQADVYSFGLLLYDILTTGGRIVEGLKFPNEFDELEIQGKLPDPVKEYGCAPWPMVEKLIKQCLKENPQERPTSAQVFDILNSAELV", "assay": "TR-FRET LanthaScreen Tb Kinase Activity Assay (LRRK2 kinase inhibition)", "type": "biochemical", "settings": "2 nM wt human LRRK2, 400 nM fluorescein-ERM (LRRKtide) peptide, 38 μM ATP, 120 minutes at room temperature", "in_short": "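LanthaScreen TR-FRET with 2 nM wt human LRRK2 catalytic site, 400 nM fluorescein-ERM (LRRKtide) peptide and 38 µM ATP in Kinase Buffer A; 120 min at room temperature. Phosphorylation detected with EDTA and Tb-anti-pLRRKtide after 60 min; IC50 from emission ratios.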", "data": [{"smiles": "CCNc1nc(Nc2cccc3c2cnn3C)ncc1Cl", "note": "[Example 70, 5-chloro-N4-ethyl-N2-(1-methyl-1H-indazol-4-yl)pyrimidine-2,4-diamine]", "values": [{"measurement": "IC50", "result": "< 0.05", "unit": "µM"}]}, {"smiles": "CS(=O)(=O)CCn1ncc2c(Nc3ncc(C(F)(F)F)c(N[C@H]4C[C@@H]4F)n3)cccc21", "note": "[Example 199, N^4-((1S,2S)-2-fluorocyclopropyl)-N^2-(1-(2-(methylsulfonyl)ethyl)-1H-indazol-4-yl)-5-(trifluoromethyl)pyrimidine-2,4-diamine]", "values": [{"measurement": "IC50", "result": "< 0.05", "unit": "µM"}]}]}
